Paper PMC10809383, “Synthesis and migrastatic activity of cytochalasin analogues lacking a macrocyclic moiety” (RSC Medicinal Chemistry, 2023)
Entries after “also recorded” stand apart in the source; their conditions may differ.

How the values were obtained:
[1] = target: T1, actin (Oryctolagus cuniculus, UniProt P68135); assay: Actin polymerization assay (pyrene-actin, Actin Polymerization Biochem Kit); type: biochemical; details: 10 μM, in vitro
T1 construct: purchased Cytoskeleton, Inc, Denver, CO
Protocol: To further ascertain the compounds' interference with actin polymerization, the active compounds, along with CytB (1) as a positive control and compound 26 as a negative control, were subjected to an in vitro actin polymerization assay (Fig. 2B). […] This correlation between actin inhibitory activity and migrastatic effect underscores the pivotal role of actin polymerization inhibition in mediating the observed migrastatic activity.
Actin polymerization assay was performed using Actin Polymerization Biochem Kit™ (Cytoskeleton, Inc, Denver, CO) according to the manufacturer protocol. Briefly, 25 μL of G-buffer containing labelled pyrene-actin (0.4 mg mL^−1) and 2.48 μL of either DMSO (10 μM, control) or inhibitor (10 μM) was added in […] well plate. Actin polymerization was initiated by the addition of 2.48 μL of 10× actin polymerization buffer and analysed in time until fluorescent signal plateau was reached using a spectrophotometer (Infinite 200 PRO, Tecan Life Sciences, Tecan Group Ltd., Zürich, CHE). The fluorescence emission intensity of actin polymerization was measured at 420 nm and 360 nm was used as excitation wavelength. Statistical analysis was performed in GraphPad using one-way ANOVA. Measurements were performed in three independent repetitions each consisting of at least three technical replicates. For a representative graph from this assay, see ESI, ^† Fig. S2.

[2] = tested on: HT1080 fibrosarcoma cells; assay: Fluorescence microscopy of actin cytoskeleton (SPY650-FastAct time-lapse); type: cell-based; details: for effect on the actin cytoskeleton: 10 μM
Protocol: Next, we conducted experiments to assess the impact of compound 24, CytB (1) and CytD (2) on the actin cytoskeleton using fluorescence microscopy in HT1080 fibrosarcoma cells (Fig. 3). […] Therefore, we increased the concentration up to 50 μM.
HT1080 cells were seeded into 12-well glass bottom plate and stained with SPY650-FastAct™ following manufacturer's protocol. Untreated cells (control) were imaged every 20 s for 15 min using Leica TCS SP2 microscope (40×/0.6 dry objective). Afterwards, an inhibitor (compound 24 at 10 μM; 50 μM or compound 1 and 2 at 10 μM) was added into the same well and its effect was recorded for 15 min (20 s/image). All video recordings were analyzed using FiJi (Rasband, W.S., ImageJ, NIH, Bethesda, MD, USA).

[3] = tested on: human melanoma cells (BLM); assay: WST-1 viability assay, BLM cells; type: cell-based; details: for IC50: Homo sapiens, 72 h treatment, WST-1 assay, 2D culture, 0–50 μM
Protocol: (§1) In addition, the cytotoxic activity of compounds 17, 20, and 22–30 was assessed by the WST-1 viability assay using BLM (human melanoma) and MRC-5 (noncancerous human fibroblasts) cells growing in a monolayer (2D cultures, Table 2) after 72 h of treatment.
(§2) Human cells from melanoma (BLM) and human lung fibroblasts (MRC-5, Merck, USA) were used to evaluate in vitro cytotoxicity of the prepared compounds. The cells were maintained at the exponential phase of growth (passaging done by trypsin–EDTA solution) in DMEM and MEM, for BLM and MRC-5, respectively, with stable L-glutamine and supplemented with 10% fetal bovine serum (Thermo Fisher Scientific, USA). The cells were kept in an incubator at 37 °C, 5% CO2 in the atmosphere, and 95% humidity.
(§3) The compound cytotoxicity was determined by a WST-1 viability assay (Merck, USA). The amount of 5000 BLM and MRC-5 cells were seeded into individual wells of 96-well plates in 100 μL of cell cultivation media and maintained in an incubator for 16 h. After this period, the cells were treated with a concentration series (0–50 μM) of the tested compounds diluted in another 100 μL of cultivation media, which was added to the wells containing cells and incubated for 72 h. Then, BLM and MRC-5 cell viability was evaluated by WST-1 agent (5% v/v solution in phenol red-free DMEM media), i.e., the cell media was discarded and 100 μL of WST-1 solution was added. After 2 h incubation, the absorbance of formazan, derived from the WST-1 tetrazolium salt was determined spectrophotometrically at 450 nm (reference at 650 nm) by a UV-vis spectrophotometer (Bio-Rad, USA). Untreated cells, cells treated only with a vehicle, and cells treated with cytochalasin B (1) and D (2) served as controls. The measurement occurred in three independent repetitions each of which consisted of three technical replicates. The data were plotted as dose–response curves from which the half-maximal inhibitory concentrations (IC50) were calculated using AAT Bioquest.

[4] = tested on: human melanoma cell line BLM; assay: Spheroid invasion assay (migrastatic activity); type: cell-based; details: 24 h; for migrastatic activity (cell migration, in words): 10 μM, BLM spheroid invasion; for rel. spheroid area: 10 µM, BLM spheroids in collagen, DMSO control 1.02
Protocol: Compounds 17, 20, and 22–30 were screened for their migrastatic activity using a spheroid invasion assay with the human melanoma cell line BLM.[46] Spheroids were formed and subsequently treated with cytochalasin analogues at a concentration of 10 μM for 24 h. CytB (1) and CytD (2) served as reference compounds for comparison. There was no significant increase in cell migration observed for any of the compounds tested. […] However, the effect was less profound than that of the reference compounds 1 and 2.
The spheroid invasion assay was performed following a previously published protocol.[63] Briefly, BLM cells were grown as spheroids using 3D Petri Dish (Microtissues). After 2 days of spheroid formation, 1.5 mg mL^−1 collagen solution (rat tail, collagen type I) was prepared (1.5 mg mL^−1 rat-tail collagen, 1× DMEM, 1% (v/v) FBS) and added at the bottom of a 96-well plate. Spheroids were embedded into the collagen (one spheroid per well) and covered with another layer of the gel. Collagen was polymerized at 37 °C and subsequently overlaid with a cultivation medium. Images of spheroids were taken with Leica TCS SP2 microscope (5×/0.15 dry objective; LAS X Life Science Microscope software) immediately after their seeding into collagen and again after 24 h. The area of the spheroids at 0 and 24 h was measured using FiJi (Rasband, W.S., ImageJ, NIH, Bethesda, MD, USA). Cellular invasiveness was determined as an increase in spheroid area within 24 h. Three independent experiments were conducted with at least 8 spheroids analysed in each experiment. Statistical analysis was performed in GraphPad using one-way ANOVA. For numeric data and representative images from this assay, see ESI, ^† Table S1 and Fig. S1.
Table S1: Spheroid invasion assay with BLM cell line at 10 µM concentration, 24 h.
Figure S1: Representative images of BLM cell spheroid invasion assay with or without
inhibitor. Images were taken at 0 h and 24 h. using a Leica TCS SP2 microscope (5x/0.15
dry objective). DMSO (first column) was used as a control. Scale bar 500 µm.

[5] = tested on: human fibroblasts (MRC-5); assay: WST-1 viability assay, MRC-5 cells; type: cell-based; details: MRC5, 72 h treatment, WST-1 assay, 2D culture, 0–50 μM
Protocol: as §1, §2, §3

Compound	inhibition of actin polymerization (in words) [1]	effect on the actin cytoskeleton ([2]; after 5 min)	effect on the actin cytoskeleton ([2]; within 2 min of addition)	change in cell morphology ([2]; 50 μM, after 2 min)	IC50 [3]	cytotoxicity (in words) ([3]; WST-1, up to 50 μM, cell line not given)	migrastatic activity (cell migration, in words) [4]	rel. spheroid area [4]	IC50 [5]
C=C1[C@@H](C)[C@H]2[C@H](Cc3ccccc3)NC(=O)[C@@]2(C(=O)OC)[C@@H](CCOCCc2ccccc2)[C@@H]1O [Compound 24, Methyl (1S,3aS,4R,5S,7S,7aR)-1-benzyl-5-hydroxy-7-methyl-6-methylene-3-oxo-4-(2-phenethoxyethyl)octahydro-3aH-isoindole-3a-carboxylate]	inhibit actin polymerization; also recorded: inhibition of actin polymerization	observable alterations became apparent	no effect was observed	visible change in cell morphology was observed	> 50 µM	non-cytotoxic	significant in vitro migrastatic activity; also recorded: significant decrease in cell migration; also recorded: most potent migrastatic activity	0.46	> 50 µM
CC1=C[C@H](CCOCCc2ccccc2)[C@]2(CO)C(=O)N[C@@H](Cc3ccccc3)[C@@H]2[C@@H]1C [Compound 30, (3S,3aR,4S,7S,7aS)-3-Benzyl-7a-(hydroxymethyl)-4,5-dimethyl-7-(2-phenethoxyethyl)-2,3,3a,4,7,7a-hexahydro-1H-isoindol-1-one]	inhibit actin polymerization	–	–	–	> 50 µM	–	significant decrease in cell migration; also recorded: modest migrastatic activity	0.50	> 50 µM
